Test results reported in paper PMC12867150, “A fungi-derived cyclic peptide enhances Th9-mediated antitumor immunity by targeting ZAP70 and SREBP1” (The Journal of Clinical Investigation, 2025).

Columns and labels:
MEK1/2 and ERK1/2 = assay: Immunoblot of total and phosphorylated MEK1/2 and ERK1/2 (Figure 5G); type: cell-based, mouse; settings: result in words
Method: Detailed lysis conditions, SDS–PAGE and transfer procedures, primary/secondary antibodies (including clones and catalog numbers), molecular weight markers, ECL detection, and ImageJ (NIH) quantification are described in Supplemental Methods.
MH9A4, Biolegend, Cat. No. 507605, PE/Cy7, clone MH9A4, Biolegend, Cat. No. […]
clone Mab11, Biolegend, Cat. No. 502908), Perforin (APC, clone dG9, Biolegend, Cat.
Flow cytometric acquisition was performed using a BD Fortessa or Cytek Aurora cytometer. Data were analyzed with FlowJo software (v10.8.1 or newer). Fluorescence compensation, isotype-matched controls, and fluorescence-minus-one (FMO) controls were applied as appropriate for multicolor panel validation.
Cells were washed twice with PBS and lysed in 1 × lysis buffer (NCM, Cat. No.
WB3100) supplemented with a protease inhibitor cocktail (Solarbio, Cat. No. P1260).
Protein lysates were separated by SDS-polyacrylamide gel electrophoresis (SDS-PA G E ; YEASEN, Cat. No. 20325ES62) and transferred to PVDF membranes for […]
Membranes were probed with the following primary antibodies: ERK1/2 (clone […]
BioLegend, Cat. No. 369502), MEK1/2 (clone L38C12, Cell Signaling Technology, Cat.
No. 4694S), phospho -MEK1/2 (clone 41G9, Cell Signaling Technology, Cat. No. […]
(Proteintech, Cat. No. 10745 -1-AP), Total Akt (Cell Signaling Technolo gy, Cat. No. […]

[1] = system: mitochondria of human Th9 CAR T cells; assay: MitoTracker of human Th9 CAR T cells (S9G); type: cell-based; settings: for mitochondrial mass using Mito Tracker in human Th9 CAR-T cells: flow cytometry, Supplemental Figure 9G
Method: Mitochondrial mass and membrane potential were assessed using MitoTracker™ Deep Red FM (Thermo Fisher Scientific, catalog M22426) and TMRM (tetramethylrhodamine methyl ester; Macklin, catalog T868125), respectively, following the manufacturers’ protocols. Cells were incubated with the respective dyes, washed, and subjected to flow cytometry or fluorescence microscopy analysis. For ultrastructural assessment, mitochondrial number and diameter were quantified from high-resolution transmission electron microscopy (TEM) images using ImageJ software. […]
(C) Flow-cytometric analysis of infection efficiency in Th9 cells transduced with a
CD19-directed CAR lentivirus. […]
(G) Flow-cytometric analysis of mitochondrial mass using Mito Tracker in human
Th9 CAR-T c e l l s (n = 3). […]
(H) and quantification (I) (n = 5 mice per group). Statistical analysis was performed
using one-way ANOVA with Tukey’s post hoc test (A and B), or two-tailed unpaired
Student’s t-test (E–G, and I). Repeated data are presented as mean ± SEM. *p < 0.05,
(also on this page, place not known: TP cells ANOV A 30IL-9+ cells (%) Fato Fato Fato Fato A SSC GzmB CtrlEpA MFIofMitoTracker (×102) GF NormalizedATPlevel CtrlEpA 4MFI of Mito Tracker (×105) CtrlEpA0 GzmB+ cells (%) CD4 10 20 IL-9+ cells (%) Day60 10 20 30 Ctrl)

human Th9 CAR T cells = assay: Intracellular ATP of human Th9 CAR T cells (S9F); type: cell-based; settings: result in words
Method: (§1) Intracellular adenosine triphosphate (ATP) levels were measured using a chemiluminescent ATP assay kit (Beyotime, catalog S0026) according to the manufacturer’s protocol. Briefly, cells were lysed and incubated with the luciferase-based detection reagent, and the resulting luminescent signal was detected using an Infinite M200 multimode microplate reader (TECAN). ATP concentrations were calculated based on a standard curve and normalized to cell number or protein content where applicable.
Ct EpA Fat Fat Ct EpA Fat Fat
(A) Flow-cytometric analysis of intracellular IL-9 expression in human Th9 cells […]
(B) Flow-cytometric assessment of mitochondrial mass using Mito Tracker in human Th9 cells treated as in (A) (n = 3).
(C) Flow-cytometric analysis of infection efficiency in Th9 cells transduced with a CD19-directed CAR lentivirus. (D and E) Flow-cytometric analysis of IL-9 expression in human Th9 CAR-T cells on days 5 and 6 of in vitro differentiation, showing representative plots (D) and quantification (E) (n = 3). […]
(G) Flow-cytometric analysis of mitochondrial mass using Mito Tracker in human Th9 CAR-T c e l l s (n = 3). (H and I) Flow-cytometric analysis of granzyme B⁺ CAR-Th9 cells isolated from spleens after adoptive transfer, showing representative plots (H) and quantification (I) (n = 5 mice per group). […]

Th9 cells = assay: Intracellular ATP assay, luminescence (Figure 4L); type: cell-based, mouse; settings: result in words
Method: as §1

Substance: anteiso-C15 Leu7 surfactin [EpA]
- MEK and ERK phosphorylation (MEK1/2 and ERK1/2): increased phosphorylation of MEK and ERK
- mitochondrial mass using Mito Tracker in human Th9 CAR-T cells ([1]; replicate 1): 3352
- mitochondrial mass using Mito Tracker in human Th9 CAR-T cells ([1]; replicate 2): 3381
- mitochondrial mass using Mito Tracker in human Th9 CAR-T cells ([1]; replicate 3): 3457
- mitochondrial potential, Th9 CAR T ([1]; result in words): elevated
- ATP output, Th9 CAR T (human Th9 CAR T cells): elevated
- intracellular ATP levels (Th9 cells): significantly elevated
